Molecules are shown by their SMILES.

This test deals with T1, α5β2γ2 subtype GABAAR (Homo sapiens, UniProt P18507+P31644).
T1 construct: expressed in transfected cells
T1 sequence (P31644 32-462): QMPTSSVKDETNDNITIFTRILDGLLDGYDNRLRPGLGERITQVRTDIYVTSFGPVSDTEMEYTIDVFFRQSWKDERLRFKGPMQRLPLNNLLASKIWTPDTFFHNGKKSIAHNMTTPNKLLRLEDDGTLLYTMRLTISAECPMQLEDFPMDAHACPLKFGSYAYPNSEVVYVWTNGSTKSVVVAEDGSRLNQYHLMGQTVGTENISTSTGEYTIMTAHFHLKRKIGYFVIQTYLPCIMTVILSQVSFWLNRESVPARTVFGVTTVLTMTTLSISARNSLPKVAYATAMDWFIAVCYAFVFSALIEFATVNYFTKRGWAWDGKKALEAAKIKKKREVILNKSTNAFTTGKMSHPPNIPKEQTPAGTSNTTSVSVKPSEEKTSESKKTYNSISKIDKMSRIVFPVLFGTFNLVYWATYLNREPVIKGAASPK
T1 sequence (P47870 25-512 partner limits assumed): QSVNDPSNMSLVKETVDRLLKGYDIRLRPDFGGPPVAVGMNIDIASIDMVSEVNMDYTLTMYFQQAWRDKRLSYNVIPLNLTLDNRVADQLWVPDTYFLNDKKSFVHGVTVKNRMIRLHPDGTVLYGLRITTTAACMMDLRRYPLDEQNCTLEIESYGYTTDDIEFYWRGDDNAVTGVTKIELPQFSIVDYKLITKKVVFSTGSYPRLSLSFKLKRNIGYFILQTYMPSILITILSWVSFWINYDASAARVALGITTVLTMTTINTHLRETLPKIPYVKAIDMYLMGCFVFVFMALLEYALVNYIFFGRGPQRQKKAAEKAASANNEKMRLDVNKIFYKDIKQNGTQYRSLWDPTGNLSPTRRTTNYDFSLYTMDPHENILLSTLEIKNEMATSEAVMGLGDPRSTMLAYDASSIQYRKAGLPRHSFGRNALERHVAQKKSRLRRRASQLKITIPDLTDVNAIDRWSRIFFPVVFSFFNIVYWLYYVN
T1 sequence (P18507 40-467 limits assumed): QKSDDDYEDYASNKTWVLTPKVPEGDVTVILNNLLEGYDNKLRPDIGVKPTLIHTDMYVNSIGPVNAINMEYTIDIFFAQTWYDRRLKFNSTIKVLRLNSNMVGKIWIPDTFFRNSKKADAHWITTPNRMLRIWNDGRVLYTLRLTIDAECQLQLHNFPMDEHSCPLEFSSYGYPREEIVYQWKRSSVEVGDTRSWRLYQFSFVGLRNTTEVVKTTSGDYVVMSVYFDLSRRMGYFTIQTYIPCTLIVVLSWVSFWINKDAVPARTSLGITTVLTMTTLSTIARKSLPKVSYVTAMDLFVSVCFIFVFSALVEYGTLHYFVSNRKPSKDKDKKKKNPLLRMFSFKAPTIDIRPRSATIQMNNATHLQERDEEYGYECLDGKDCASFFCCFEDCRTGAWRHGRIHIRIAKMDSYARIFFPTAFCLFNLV
Nature of the test: Positive allosteric modulator activity: potentiation of EC20 GABA current in oocytes. Format: cell-based. Particulars: read-out: GABA α5 Functional Data (potentiation), @ 100 nM, reported as ranges. The procedure:
(B) Positive Allosteric Modulator Activity of Test Compounds on α5β2γ2 Subtype GABAAR
On day 1, 1 ng/32 nL of GABAA α5β2γ2 cDNA was injected into one oocyte. Test starts on day 2. The cDNA injected to the oocytes was a mix of alpha, beta and gamma, their ratio is 1:1:10 (by weight) and the total weight of the mixed 3 subunits to be injected in one oocyte was 1 ng in 32 nl volume. The injected oocytes can also be tested on day 3. In such case, the cDNA amount injected to the oocytes should be reduced by 20%.
Compounds of the present invention were tested using the following procedures.
• 1). 8 oocytes were placed in 8 chambers of OpusXpress and superfused with Modified Barth's Saline (MBS) at 3 mL/min. Glass electrodes back-filled with 3M KCl (0.5-3 megaohms) were used.
Control test (Diazepam or methyl 3,5-diphenylpyridazine-4-carboxylate) • 1). New oocytes was used to run new test. • 2). […] Oocytes were washed with MBS for 5-10 min. • 4). […] Itest was divided by IGABA to obtain potentiation (%). Test Compounds at Multiple Doses • 1). Repeat the above steps 1), 2) and 3) in the control test. • 2). […] Divide Itest by IGABA to obtain potentiation (%). • 3). Discard all tested oocytes, new oocytes were used and the above steps 1) and 2) were repeated to test second concentration of the same compound. Each oocyte was used for only one concentration test for a single test compound. The steps were repeated for other test compounds.
In the case of `CCOC(=O)c1ncn2c1Cc1c(C)nnn1-c1cc(OC)ccc1-2` [Compound 1], the activation at 0.1 µM was in the range of 20 to 50%.

Take `CCOC(=O)c1ncn2c1Cc1c(C)nnn1-c1cc(F)ccc1-2` [Compound 2]: the activation at 0.1 µM lay within 20 to 50%.

On to `CCOC(=O)c1ncn2c1Cc1c(COc3ccccc3)nnn1-c1cc(OC)ccc1-2` [Compound 9], for which the activation at 0.1 µM is 20 to 50%.

`CCOC(=O)c1ncn2c1Cc1c(COc3ccc(F)cc3)nnn1-c1cc(OC)ccc1-2` [Compound 10]: the activation at 0.1 µM fell in the range of 5 to 20%.

In the case of `CCOC(=O)c1ncn2c1Cc1c(COc3cccc(OC)c3)nnn1-c1cc(OC)ccc1-2` [Compound 11], the activation at 0.1 µM was in the range of 20 to 50%.

Regarding `CCOC(=O)c1ncn2c1Cc1c(Cc3ccc(Cl)cc3)nnn1-c1cc(F)ccc1-2` [Compound 45], the activation at 0.1 µM fell in the range of 20 to 50%.

Regarding `CCOC(=O)c1ncn2c1Cc1c(CN3CCCC3)nnn1-c1cc(OC)ccc1-2` [Compound 48], the activation at 0.1 µM fell in the range of 20 to 50%.

For the molecule `CCOC(=O)c1ncn2c1Cc1c(CN(CC)CC)nnn1-c1cc(OC)ccc1-2` [Compound 50], the activation at 0.1 µM lay in the range of 5 to 20%.

Turning to `CCOC(=O)c1ncn2c1Cc1c(CN(C)Cc3ccccc3)nnn1-c1cc(OC)ccc1-2` [Compound 51], the activation at 0.1 µM fell in the range of 5 to 20%.

On to `CCOC(=O)c1ncn2c1Cn1c(COc3ccccc3)nnc1-c1cc(OC)ccc1-2` [Compound 55], for which the activation at 0.1 µM was in the range of 20 to 50%.

In the case of `CCOC(=O)c1ncn2c1Cn1c(Oc3ccccc3)nnc1-c1cc(OC)ccc1-2` [Compound 104], the activation at 0.1 µM fell in the range of 5 to 20%.

As for `Cc1noc(-c2ncn3c2Cc2c(Cc4ccccc4)nnn2-c2cc(F)ccc2-3)n1` [Compound 109], the activation at 0.1 µM lay within 20 to 50%.

`Cc1noc(-c2ncn3c2Cc2c(C)nnn2-c2cc(F)ccc2-3)n1` [Compound 110]: the activation at 0.1 µM is 20 to 50%.

Take `CCOC(=O)c1ncn2c1Cc1c(Cc3cccnc3)nnn1-c1cc(C)ccc1-2` [Compound 111]: the activation at 0.1 µM is 20 to 50%.

For the molecule `Cc1nnn2c1Cc1c(C(=O)OC(C)C)ncn1-c1ccc(F)cc1-2` [Compound 112], the activation at 0.1 µM fell in the range of 5 to 20%.

For `Cc1nnn2c1Cc1c(C(=O)OCC(C)(C)C)ncn1-c1ccc(F)cc1-2` [Compound 113], the activation at 0.1 µM was greater than 50%.

For `Cc1nnn2c1Cc1c(C(=O)OCC(F)(F)F)ncn1-c1ccc(F)cc1-2` [Compound 114], the activation at 0.1 µM was greater than 50%.

For the molecule `COc1ccc2c(c1)-c1nnc(COc3ccccc3)n1Cc1c(C(=O)OC(C)C)ncn1-2` [Compound 120], the activation at 0.1 µM lay in the range of 20 to 50%.

For `Cc1ncn2c1Cc1c(C)nnn1-c1ccccc1-2` [Compound 121], the activation at 0.1 µM lay in the range of 5 to 20%.

Consider `COc1ccc2c(c1)-c1nnc(COc3ccccc3)n1Cc1c(C#N)ncn1-2` [Compound 122], for which the activation at 0.1 µM is 5 to 20%.

`Cc1noc(-c2ncn3c2Cc2c(C)nnn2-c2ccccc2-3)n1` [Compound 126]: the activation at 0.1 µM lay in the range of 20 to 50%.

Take `Cc1nc(-c2ncn3c2Cc2c(C)nnn2-c2ccccc2-3)no1` [Compound 127]: the activation at 0.1 µM lay in the range of 20 to 50%.

Take `COCc1nnc2n1Cc1c(-c3nc(C)no3)ncn1-c1ccc(OC)cc1-2` [Compound 128]: the activation at 0.1 µM is 20 to 50%.

As to `COCc1nnc2n1Cc1c(-c3nc(C(C)C)no3)ncn1-c1ccc(OC)cc1-2` [Compound 130], the activation at 0.1 µM was in the range of 20 to 50%.

Regarding `Cc1nnn2c1Cc1c(-c3nc(C(C)C)no3)ncn1-c1ccccc1-2` [Compound 132], the activation at 0.1 µM fell in the range of 20 to 50%.

As to `Cc1nnn2c1Cc1c(-c3noc(C(C)C)n3)ncn1-c1ccccc1-2` [Compound 133], the activation at 0.1 µM was 5 to 20%.

On to `CCOC(=O)c1ncn2c1Cn1c(COc3ccccc3)nnc1-c1cc(F)ccc1-2` [Compound 137], for which the activation at 0.1 µM lay within 20 to 50%.

Consider `Cc1nc(-c2ncn3c2Cc2c(C)nnn2-c2cc(F)ccc2-3)no1` [Compound 145], for which the activation at 0.1 µM was greater than 50%.

`CC(C)c1nc(-c2ncn3c2Cn2c(COc4ccccc4)nnc2-c2cc(F)ccc2-3)no1` [Compound 147]: the activation at 0.1 µM fell in the range of 20 to 50%.

On to `Cc1nc(-c2ncn3c2Cn2c(COc4ccccc4)nnc2-c2cc(F)ccc2-3)no1` [Compound 148], for which the activation at 0.1 µM is 20 to 50%.

Regarding `Cc1nnn2c1Cc1c(-c3noc(C(C)C)n3)ncn1-c1ccc(F)cc1-2` [Compound 149], the activation at 0.1 µM was greater than 50%.

In the case of `Cc1nnn2c1Cc1c(C(=O)OC(C)C)ncn1-c1ccccc1-2` [Compound 153], the activation at 0.1 µM was 20 to 50%.

For the molecule `CCc1nc(-c2ncn3c2Cc2c(C)nnn2-c2cc(F)ccc2-3)no1` [Compound 155], the activation at 0.1 µM is 20 to 50%.

Consider `CCc1nc(-c2ncn3c2Cn2c(COc4ccccc4)nnc2-c2cc(F)ccc2-3)no1` [Compound 158], for which the activation at 0.1 µM lay within 20 to 50%.

Consider `Cc1nnn2c1Cc1c(-c3noc(C(C)(C)C)n3)ncn1-c1ccc(F)cc1-2` [Compound 160], for which the activation at 0.1 µM was greater than 50%.

Consider `COc1ccc2c(c1)-c1nnc(COc3ccccc3)n1Cc1c(-c3noc(C)n3)ncn1-2` [Compound 162], for which the activation at 0.1 µM fell in the range of 20 to 50%.

As for `COc1ccc2c(c1)-c1nnc(COc3ccc(F)cc3)n1Cc1c(-c3noc(C)n3)ncn1-2` [Compound 163], the activation at 0.1 µM is 20 to 50%.

For `COCc1nnc2n1Cc1c(-c3noc(C)n3)ncn1-c1ccc(OC)cc1-2` [Compound 164], the activation at 0.1 µM was 5 to 20%.

Take `COc1ccc2c(c1)-c1nnc(COCc3ccccc3)n1Cc1c(C#N)ncn1-2` [Compound 166]: the activation at 0.1 µM was in the range of 5 to 20%.

On to `COc1ccc2c(c1)-n1nnc(COc3cccc(F)c3)c1Cc1c(-c3noc(C)n3)ncn1-2` [Compound 168], for which the activation at 0.1 µM fell in the range of 5 to 20%.

Consider `COc1ccc2c(c1)-c1nnc(COc3ccccc3)n1Cc1c(-c3noc(C(C)C)n3)ncn1-2` [Compound 171], for which the activation at 0.1 µM is greater than 50%.

In the case of `COc1ccc2c(c1)-c1nnc(COc3ccc(F)cc3)n1Cc1c(-c3noc(C(C)C)n3)ncn1-2` [Compound 172], the activation at 0.1 µM was greater than 50%.

`CCOCc1nnc2n1Cc1c(-c3noc(C(C)C)n3)ncn1-c1ccc(OC)cc1-2` [Compound 173]: the activation at 0.1 µM was greater than 50%.

For `COc1ccc2c(c1)-c1nnc(COc3cccnc3)n1Cc1c(-c3noc(C(C)C)n3)ncn1-2` [Compound 176], the activation at 0.1 µM was greater than 50%.

Consider `COc1ccc2c(c1)-c1nnc(COc3cccc4ccccc34)n1Cc1c(-c3noc(C(C)C)n3)ncn1-2` [Compound 177], for which the activation at 0.1 µM was greater than 50%.

Regarding `COc1ccc2c(c1)-c1nnc(COC3CCCC3)n1Cc1c(-c3noc(C(C)C)n3)ncn1-2` [Compound 178], the activation at 0.1 µM is greater than 50%.

For `COc1ccc2c(c1)-c1nnc(COc3cccc(F)c3)n1Cc1c(-c3noc(C(C)C)n3)ncn1-2` [Compound 179], the activation at 0.1 µM was greater than 50%.

With `COc1ccc2c(c1)-n1nnc(COc3ccc(F)cc3)c1Cc1c(-c3noc(C)n3)ncn1-2` [Compound 180], the activation at 0.1 µM fell in the range of 20 to 50%.

`COc1ccc2c(c1)-n1nnc(COc3ccccc3F)c1Cc1c(-c3noc(C)n3)ncn1-2` [Compound 181]: the activation at 0.1 µM lay in the range of 20 to 50%.

Consider `COc1ccc2c(c1)-n1nnc(COc3ccccc3)c1Cc1c(-c3noc(C)n3)ncn1-2` [Compound 182], for which the activation at 0.1 µM was 20 to 50%.

(Values after patent publication US12528819B2 (priority 2016, dated 2026).)
